Results published in the NIST ThermoML archive (doi:10.1016/j.jct.2009.10.002).

Columns and labels:
[1] = mn = molality of the nth substance listed, in mol/kg; conditions: 298.15 K, 101 kPa, Liquid, Vibrating tube method
[2] = 298.15 K; 101.33 kPa; Liquid; Vibrating tube method

CC(=O)Nc1ccccc1O [N-(2-hydroxyphenyl)ethanamide] + CCCCCCCCO
[1]
Conditions | mass density [kg/m3]
m1 = 0.001728 | 822.19
m1 = 0.002758 | 822.23
m1 = 0.003165 | 822.24
m1 = 0.003211 | 822.24
m1 = 0.004195 | 822.28
m1 = 0.005164 | 822.31
m1 = 0.006563 | 822.36
m1 = 0.01154 | 822.56
m1 = 0.0164 | 822.75
m1 = 0.01909 | 822.86
m1 = 0.02399 | 823.06
m1 = 0.03356 | 823.46

CCOc1ccc(NC(C)=O)cc1 [N-(4-ethoxyphenyl)ethanamide] + CCCCCCCCO
[1]
Conditions | mass density [kg/m3]
m1 = 0.00971 | 822.4
m1 = 0.01263 | 822.48
m1 = 0.01969 | 822.67
m1 = 0.0229 | 822.75
m1 = 0.02432 | 822.79
m1 = 0.02706 | 822.86
m1 = 0.03645 | 823.12
m1 = 0.04962 | 823.48
m1 = 0.06288 | 823.85
m1 = 0.08214 | 824.37
m1 = 0.105 | 824.98
m1 = 0.1351 | 825.83
m1 = 0.1591 | 826.63

CC(=O)Nc1ccc(O)cc1 [N-acetyl-p-aminophenol] + CCCCCCCCO
[1]
Conditions | mass density [kg/m3]
m1 = 0.006684 | 822.49
m1 = 0.009351 | 822.61
m1 = 0.01261 | 822.76
m1 = 0.0141 | 822.83
m1 = 0.01601 | 822.91
m1 = 0.01873 | 823.05
m1 = 0.02173 | 823.19
m1 = 0.02486 | 823.33
m1 = 0.03075 | 823.59
m1 = 0.03578 | 823.8
m1 = 0.04077 | 824.01
m1 = 0.04581 | 824.23
m1 = 0.05103 | 824.46
m1 = 0.05889 | 824.81
m1 = 0.06631 | 825.1
m1 = 0.07665 | 825.5
m1 = 0.08633 | 825.93
m1 = 0.1379 | 828.16

CC(=O)Nc1ccccc1 [N-phenylethanamide] + CCCCCCCCO
[1]
Conditions | mass density [kg/m3]
m1 = 0.002139 | 822.18
m1 = 0.00565 | 822.29
m1 = 0.01113 | 822.46
m1 = 0.01413 | 822.55
m1 = 0.02434 | 822.84
m1 = 0.02629 | 822.9
m1 = 0.05259 | 823.67
m1 = 0.08132 | 824.49
m1 = 0.1056 | 825.18
m1 = 0.1482 | 826.35
m1 = 0.1847 | 827.37
m1 = 0.2858 | 830.1
m1 = 0.3663 | 832.25

NC(=O)c1ccccc1 [benzamide] + CCCCCCCCO
[1]
Conditions | mass density [kg/m3]
m1 = 0.004751 | 822.25
m1 = 0.009145 | 822.4
m1 = 0.01194 | 822.49
m1 = 0.01802 | 822.68
m1 = 0.02473 | 822.9
m1 = 0.03952 | 823.38
m1 = 0.07569 | 824.52
m1 = 0.108 | 825.55
m1 = 0.1331 | 826.37
m1 = 0.179 | 827.87

O=C(O)c1ccccc1 [benzoic acid] + CCCCCCCCO
[1]
Conditions | mass density [kg/m3]
m1 = 0.002452 | 822.18
m1 = 0.005198 | 822.27
m1 = 0.01254 | 822.53
m1 = 0.01324 | 822.55
m1 = 0.03589 | 823.34
m1 = 0.06692 | 824.43
m1 = 0.198 | 828.84
m1 = 0.3209 | 832.91
m1 = 0.4227 | 836.12
m1 = 0.5096 | 838.89

CCCCCCCCO [octan-1-ol]
Conditions | mass density [kg/m3]
[2] | 822.11

Oc1ccccc1 [phenol] + CCCCCCCCO
[1]
Conditions | mass density [kg/m3]
m1 = 0.01293 | 822.32
m1 = 0.0235 | 822.59
m1 = 0.03299 | 822.87
m1 = 0.04712 | 823.32
m1 = 0.06563 | 823.78
m1 = 0.1179 | 825.01
m1 = 0.2355 | 827.82
m1 = 0.2692 | 828.62
m1 = 0.3564 | 831.14
m1 = 0.4787 | 834.18
